{"source": "ChEMBL document CHEMBL1133003", "about": "“GABA-Activated ligand gated ion channels: medicinal chemistry and molecular biology” (J Med Chem, 2000)", "key": {"[1]": {"target": "GABA-A receptor; anion channel", "test": "Affinity against recombinant Gamma-aminobutyric acid A (GABA-A) receptor", "type": "protein-complex assay"}, "[2]": {"target": "T1, Gamma-aminobutyric acid receptor subunit rho-1 (Homo sapiens, UniProt P24046)", "T1 sequence (P24046 whole entry)": "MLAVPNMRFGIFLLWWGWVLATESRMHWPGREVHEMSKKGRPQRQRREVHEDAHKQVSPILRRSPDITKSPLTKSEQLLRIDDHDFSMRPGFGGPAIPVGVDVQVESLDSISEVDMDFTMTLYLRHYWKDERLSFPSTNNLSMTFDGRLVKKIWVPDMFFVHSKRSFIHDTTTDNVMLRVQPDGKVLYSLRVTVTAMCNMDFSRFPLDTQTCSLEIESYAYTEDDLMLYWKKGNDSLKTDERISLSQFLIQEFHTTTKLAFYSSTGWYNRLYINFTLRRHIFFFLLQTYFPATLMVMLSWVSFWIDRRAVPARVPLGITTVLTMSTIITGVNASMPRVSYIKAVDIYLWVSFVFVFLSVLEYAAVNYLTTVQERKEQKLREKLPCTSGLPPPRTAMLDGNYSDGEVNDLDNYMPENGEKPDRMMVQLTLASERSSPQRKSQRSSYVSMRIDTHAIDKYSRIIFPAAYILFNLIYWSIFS", "test": "Partial agonist activity against rho-1 subunit GABA-C receptor expressed in Xenopus oocytes", "type": "functional, cell-based, Oocyte"}, "[3]": {"target": "GABA-A receptor; anion channel", "test": "Potent antagonist activity against Gamma-aminobutyric acid A (GABA-A) receptor from rat cortex RNA expressed in Xenopus oocytes", "type": "functional, cell-based", "settings": "oocyte"}, "GABA-C receptor": {"target": "GABA-C receptor (Homo sapiens, UniProt A8MPY1+P24046+P28476)", "sequence (P28476 whole entry)": "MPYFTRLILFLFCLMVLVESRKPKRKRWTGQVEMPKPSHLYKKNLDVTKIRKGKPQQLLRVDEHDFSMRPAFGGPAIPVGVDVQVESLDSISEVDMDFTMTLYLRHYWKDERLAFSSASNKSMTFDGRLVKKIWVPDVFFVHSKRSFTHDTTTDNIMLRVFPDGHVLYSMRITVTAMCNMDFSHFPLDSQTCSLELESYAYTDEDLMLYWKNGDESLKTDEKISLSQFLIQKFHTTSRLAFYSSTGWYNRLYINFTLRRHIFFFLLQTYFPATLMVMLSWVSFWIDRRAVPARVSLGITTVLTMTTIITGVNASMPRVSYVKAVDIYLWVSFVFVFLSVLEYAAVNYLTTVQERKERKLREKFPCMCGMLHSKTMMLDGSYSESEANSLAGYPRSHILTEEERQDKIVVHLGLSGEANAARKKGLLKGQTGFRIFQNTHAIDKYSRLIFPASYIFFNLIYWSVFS", "sequence (A8MPY1 whole entry)": "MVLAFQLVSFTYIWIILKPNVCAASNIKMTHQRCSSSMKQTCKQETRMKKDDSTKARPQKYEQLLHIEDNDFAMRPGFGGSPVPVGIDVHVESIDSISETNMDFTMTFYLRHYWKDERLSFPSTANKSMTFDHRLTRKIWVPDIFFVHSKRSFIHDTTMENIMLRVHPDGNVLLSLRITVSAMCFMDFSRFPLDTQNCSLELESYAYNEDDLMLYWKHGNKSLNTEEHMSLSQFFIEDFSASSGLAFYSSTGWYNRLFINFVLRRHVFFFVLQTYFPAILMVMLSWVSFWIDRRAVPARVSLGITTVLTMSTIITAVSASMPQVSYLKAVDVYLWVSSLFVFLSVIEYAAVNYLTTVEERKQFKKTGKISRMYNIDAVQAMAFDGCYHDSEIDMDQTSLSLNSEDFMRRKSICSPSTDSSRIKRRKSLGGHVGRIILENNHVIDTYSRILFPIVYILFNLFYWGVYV", "sequence (P24046 whole entry)": "as the sequence (P24046 whole entry) above", "test": "Agonist activity against Gamma-aminobutyric acid type C (GABA-C) receptor derived from bovine retinal RNA expressed in Xenopus oocytes", "type": "functional, cell-based, Bos taurus, Oocyte"}, "[4]": {"target": "T2, Gamma-aminobutyric acid receptor subunit rho-2 (Homo sapiens, UniProt P28476)", "T2 sequence (P28476 whole entry)": "as the sequence (P28476 whole entry) above", "test": "Partial agonist activity against homomeric rho-2 subunit GABA-C receptor expressed in Xenopus oocytes", "type": "functional, cell-based, Oocyte"}, "[5]": {"target": "T2, Gamma-aminobutyric acid receptor subunit rho-2", "test": "Partial agonist activity against rho-2 subunit GABA-C receptor expressed in Xenopus oocytes, higher intrinsic activity (Im 38%)", "type": "functional, cell-based, Oocyte"}, "[6]": {"target": "T1, Gamma-aminobutyric acid receptor subunit rho-1", "test": "Partial agonist activity against rho-1 subunit GABA-C receptor expressed in Xenopus oocytes, low intrinsic activity (Im 3%)", "type": "functional, cell-based, Oocyte"}, "[7]": {"target": "GABA-C receptor (Homo sapiens) (UniProt P28476+A8MPY1+P24046)", "sequence (A8MPY1 whole entry, looked up)": "as the sequence (A8MPY1 whole entry) above", "sequence (P24046 whole entry, looked up)": "as the sequence (P24046 whole entry) above", "sequence (P28476 whole entry, looked up)": "as the sequence (P28476 whole entry) above", "test": "Antagonist activity against rho subunit Gamma-aminobutyric acid C (GABA-C) receptor expressed in Xenopus oocytes", "type": "functional, cell-based", "settings": "Oocyte"}, "[8]": {"target": "T2, Gamma-aminobutyric acid receptor subunit rho-2", "test": "Activation of human rho2 GABA-C receptor at 34% of maximal GABA-induced response"}, "[9]": {"target": "T1, Gamma-aminobutyric acid receptor subunit rho-1", "test": "Antagonist activity against rho-1 subunit GABA-C receptor expressed in Xenopus oocytes", "type": "functional, cell-based", "settings": "Oocyte"}, "[10]": {"target": "GABA-A receptor; anion channel", "test": "Inhibitory activity against Gamma-aminobutyric acid A (GABA-A) receptor from rat cultured cortical neuron RNA expressed in Xenopus oocytes", "type": "functional, cell-based", "settings": "oocyte"}, "[11]": {"target": "T1, Gamma-aminobutyric acid receptor subunit rho-1", "test": "Partial agonist activity against human rho1 subunit GABA-C receptor expressed in Xenopus oocytes", "type": "functional, cell-based, Oocyte"}, "[12]": {"target": "T2, Gamma-aminobutyric acid receptor subunit rho-2", "test": "Partial agonist activity against human rho-2 subunit GABA-C receptor expressed in Xenopus oocytes", "type": "functional, cell-based, Oocyte"}, "[13]": {"target": "T1, Gamma-aminobutyric acid receptor subunit rho-1", "test": "Partial agonist activity against human rho-1 subunit GABA-C receptor expressed in Xenopus oocytes", "type": "functional, cell-based, Oocyte"}, "[14]": {"target": "GABA-A receptor; anion channel", "test": "Antagonist activity against Gamma-aminobutyric acid A (GABA-A) receptor", "type": "functional, Rattus norvegicus"}, "[15]": {"target": "T1, Gamma-aminobutyric acid receptor subunit rho-1", "test": "Full agonist activity against human rho-1 subunit GABA-C receptor expressed in Xenopus oocytes", "type": "functional, cell-based, Oocyte"}, "[16]": {"target": "T2, Gamma-aminobutyric acid receptor subunit rho-2", "test": "Full agonist activity against human rho-2 subunit GABA-C receptor expressed in Xenopus oocytes", "type": "functional, cell-based, Oocyte"}, "[17]": {"target": "T1, Gamma-aminobutyric acid receptor subunit rho-1", "test": "Partial agonist activity against rho-1 subunit GABA-C receptor expressed in Xenopus oocytes with low efficacy", "type": "functional, cell-based, Oocyte"}, "[18]": {"target": "T2, Gamma-aminobutyric acid receptor subunit rho-2", "test": "Partial agonist activity with low efficacy against rho-2 subunit GABA-C receptor expressed in Xenopus oocytes", "type": "functional, cell-based, Oocyte"}, "[19]": {"target": "GABA-A receptor; anion channel", "test": "Competitive antagonist activity against Gamma-aminobutyric acid A (GABA-A) receptor", "type": "functional"}, "[20]": {"target": "GABA-A receptor; anion channel", "test": "Non-competitive antagonist activity against Gamma-aminobutyric acid A (GABA-A) receptor", "type": "functional, Rattus norvegicus"}}, "data": [{"smiles": "COC(=O)[C@H]1[C@@H](OC(=O)c2ccccc2)C[C@@H]2CC[C@H]1N2C", "note": "[COCAINE]", "values": [{"measurement": "IC50", "setting": "[1]", "result": 127, "unit": "µM"}]}, {"smiles": "NC/C=C(\\F)C(=O)O", "values": [{"measurement": "EC50", "setting": "[2]", "result": 2.43, "unit": "µM"}]}, {"smiles": "O=S(=O)(O)C1CCNCC1", "values": [{"measurement": "Kd", "setting": "[3]", "result": 104, "unit": "µM"}]}, {"smiles": "NC/C=C/C(=O)O", "note": "[t-4-AMINOCROTONIC ACID (TACA)]", "values": [{"measurement": "Kd", "setting": "GABA-C receptor", "result": 0.6, "unit": "µM"}, {"measurement": "EC50", "setting": "[4]", "result": 0.4, "unit": "µM"}]}, {"smiles": "O=C(O)Cc1c[nH]cn1", "note": "[IMIDAZOLE ACETIC ACID]", "values": [{"measurement": "EC50", "setting": "[5]", "result": 3, "unit": "µM"}, {"measurement": "EC50", "setting": "[6]", "result": 16, "unit": "µM"}, {"measurement": "Kb", "setting": "[7]", "result": 1.5, "unit": "µM"}]}, {"smiles": "C/C(=C\\CN)C(=O)O", "values": [{"measurement": "EC50", "setting": "[8]", "result": 101, "unit": "µM"}, {"measurement": "Kb", "setting": "[9]", "result": 45, "unit": "µM"}]}, {"smiles": "CCCCCCCC/C=C\\CCCCCCCC(N)=O", "note": "[OLEAMIDE]", "values": [{"measurement": "EC50", "setting": "[10]", "result": 15, "unit": "µM"}]}, {"smiles": "NC/C=C\\C(=O)O", "values": [{"measurement": "EC50", "setting": "[11]", "result": 74, "unit": "µM"}, {"measurement": "EC50", "setting": "[12]", "result": 70, "unit": "µM"}]}, {"smiles": "NCc1cc(=O)[nH]o1", "note": "[MUSCIMOL]", "values": [{"measurement": "Kd", "setting": "[12]", "result": 1.4, "unit": "µM"}, {"measurement": "Kd", "setting": "[13]", "result": 2.3, "unit": "µM"}]}, {"smiles": "Cc1ccc2c(c1)c1c3n2CCNC3CCC1", "note": "(centres undefined) [PIRLINDOLE]", "values": [{"measurement": "EC50", "setting": "[14]", "result": 12, "unit": "µM"}]}, {"smiles": "O=c1cc(-c2cccc([N+](=O)[O-])c2)oc2cccc(Br)c12", "values": [{"measurement": "Ki", "setting": "[1]", "result": 0.03, "unit": "µM"}]}, {"smiles": "NC[C@@H]1C[C@@H]1C(=O)O", "note": "(relative stereo)", "values": [{"measurement": "EC50", "setting": "[15]", "result": 68, "unit": "µM"}, {"measurement": "EC50", "setting": "[16]", "result": 34.5, "unit": "µM"}, {"measurement": "EC50", "setting": "[17]", "result": 20, "unit": "µM"}, {"measurement": "EC50", "setting": "[18]", "result": 17.5, "unit": "µM"}]}, {"smiles": "c1ccc2c(NCCCCCCCNc3c4c(nc5ccccc35)CCCC4)c3c(nc2c1)CCCC3", "values": [{"measurement": "IC50", "setting": "[19]", "result": 6, "unit": "µM"}]}, {"smiles": "Cc1nccn1CC1CCc2c(c3ccccc3n2C)C1=O", "note": "(centres undefined) [ONDANSETRON]", "values": [{"measurement": "IC50", "setting": "[20]", "result": 10, "unit": "µM"}]}, {"smiles": "NCCCS(=O)O", "note": "[HOMOHYPOTAURINE]", "values": [{"measurement": "EC50", "setting": "[11]", "result": 4.6, "unit": "µM"}]}]}
